From ChEMBL document CHEMBL2311294, “Design, synthesis and bioevalution of novel benzamides derivatives as HDAC inhibitors” (Bioorg Med Chem Lett, 2013) come the findings set out here.

As usually defined, the IC50 is the midpoint of a concentration-inhibition curve. A higher IC50 goes with a need for much substance. The AUC(0-t) is exposure summed from dosing to a finite time, without extrapolation to infinity. Usually AUC(0-inf) stands for total exposure, with the tail of the curve extrapolated. High values mean more exposure, low ones less exposure. One may read the Tmax as the time at which the peak concentration occurs. One may read the bioavailability as the share of a dose that reaches the circulation, judged against a reference dose that is usually intravenous. Lower therefore signals poor availability.

In data set [1] the test system is MCF7. Put plainly: cells. The following applies: Homo sapiens, MCF7, 72 h.
Description: Cytotoxicity against human MCF7 cells after 72 hrs by MTT assay
In the next data set the test system is HCT-116. Put plainly: cells. The conditions noted are these: Homo sapiens, HCT-116, 72 h.
The subject of data set [2] is A549. Put plainly: cells. The following applies: Homo sapiens, A549, 72 h.
Description: Cytotoxicity against human A549 cells after 72 hrs by MTT assay
In another data set the target is Histone deacetylase 1 (Homo sapiens, UniProt Q13547). Description: Inhibition of HDAC1 (unknown origin).
Data set [3] can be described thus: AUClast in Sprague-Dawley rat at 25 mg/kg, po. The conditions noted are these: plasma.
The nature of data set [4]: AUC infinity in Sprague-Dawley rat at 25 mg/kg, po. Format: ADME, organism-based. More on the design: time infinity, dose 25 mg/kg, route oral. The following applies: plasma.
Data set [5] can be described thus: Terminal half life in Sprague-Dawley rat at 5 mg/kg, iv. The conditions noted are these: in vivo, read-out: beta t1/2 (converted). It is filed as ADME, organism-based. More on the design: dose 5 mg/kg, route intravenous.
The nature of data set [6]: Tmax in Sprague-Dawley rat at 25 mg/kg, po. Also on record: dose 25 mg/kg, route oral. Format: ADME, organism-based. The following applies: in vivo.
Data set [7] has as its system MCF7. Description: Ratio of MGCD0103 IC50 to compound IC50 for human MCF7 cells. It is filed as functional.
Data set [8] is described as follows: Oral bioavailability in Sprague-Dawley rat at 25 mg/kg. Format: ADME, organism-based. The conditions noted are these: in vivo.
Data set [9] is described as follows: Terminal half life in Sprague-Dawley rat at 25 mg/kg, po. Format: ADME, organism-based. The conditions noted are these: in vivo, read-out: beta t1/2 (converted). More on the design: dose 25 mg/kg, route oral.
In data set [10] the test system is A549. Put plainly: Ratio of MGCD0103 IC50 to compound IC50 for human A549 cells. It is filed as functional.

Sequence of Histone deacetylase 1 (Q13547 whole entry): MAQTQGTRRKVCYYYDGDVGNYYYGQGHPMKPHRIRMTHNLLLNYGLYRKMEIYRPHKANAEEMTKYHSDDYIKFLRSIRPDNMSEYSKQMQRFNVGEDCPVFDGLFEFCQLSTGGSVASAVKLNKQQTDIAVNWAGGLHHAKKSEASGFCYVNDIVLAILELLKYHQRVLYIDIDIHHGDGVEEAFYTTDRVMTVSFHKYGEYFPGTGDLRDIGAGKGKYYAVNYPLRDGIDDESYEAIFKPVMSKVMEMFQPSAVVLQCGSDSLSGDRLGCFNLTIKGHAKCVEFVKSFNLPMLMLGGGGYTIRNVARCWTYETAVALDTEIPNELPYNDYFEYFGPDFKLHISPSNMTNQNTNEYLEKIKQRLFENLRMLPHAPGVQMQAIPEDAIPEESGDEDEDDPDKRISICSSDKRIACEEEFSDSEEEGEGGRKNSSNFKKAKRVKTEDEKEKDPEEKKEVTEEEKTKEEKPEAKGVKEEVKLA

As for `Nc1ccccc1NC(=O)c1ccc(CNc2nccc(-c3cnc4cnccn34)n2)cc1`, the IC50 in the data set on MCF7 [1] is 2180 nM; in the data set with HCT-116 it was 214 nM; with A549 [2] it was 509 nM; against Histone deacetylase 1 it was 110 nM.
In the same order, the values of `Cc1nc2ccccn2c1-c1ccnc(NCc2ccc(C(=O)Nc3ccccc3N)cc2)n1` are 2090 nM, 203 nM, 439 nM and 108 nM.
For `Cc1nc2ncccn2c1-c1ccnc(NCc2ccc(C(=O)Nc3ccccc3N)cc2)n1` the same measures were 4110 nM, 189 nM, 857 nM and 127 nM.
In the same order, the values of `Cc1nc2cnccn2c1-c1ccnc(NCc2ccc(C(=O)Nc3ccccc3N)cc2)n1` are 3740 nM, 264 nM, 694 nM and 97 nM.
For the molecule `Cc1nc2ccccn2c1-c1ccnc(NCCc2ccc(C(=O)Nc3ccccc3N)cc2)n1`, the IC50 in the data set on MCF7 [1] amounted to 4120 nM; with HCT-116, 304 nM; with A549 [2], 851 nM; on Histone deacetylase 1 it was 131 nM.
In the same order, the values of `Nc1ccccc1NC(=O)c1ccc(CCNc2nccc(-c3cnc4ncccn34)n2)cc1` are 1720 nM, 256 nM, 724 nM and 154 nM.
For `Cc1nc2ccccn2c1-c1ccnc(NCc2ccc(C(=O)Nc3cc(F)ccc3N)cc2)n1` the same measures were 1000 nM, 270 nM, 176 nM and 97 nM.
In the same order, the values of `Cc1nc2ccccn2c1-c1ccnc(NCc2ccc(C(=O)Nc3ccc(F)cc3N)cc2)n1` are 2400 nM, 244 nM, 649 nM and 135 nM.
As to `Cc1nc2ccc(Br)cn2c1-c1ccnc(NCc2ccc(C(=O)Nc3ccccc3N)cc2)n1`, the IC50 in the data set on MCF7 [1] amounted to 2360 nM; with HCT-116, 301 nM; in the data set on A549 [2], 501 nM; at Histone deacetylase 1, 125 nM.
Regarding `Nc1ccccc1NC(=O)c1ccc(CNc2nccc(-c3cnc4ccccn34)n2)cc1`, the IC50 in the data set with MCF7 [1] stood at 661 nM; in the data set on HCT-116, 82 nM; in the data set with A549 [2], 110 nM; on Histone deacetylase 1 it was 53 nM. For the same molecule, the exposure AUC(0-t) in [3] turned out to be 71900 ng·h/mL. For the same molecule, in data set [4], the AUC(0-inf) came to 72300 ng·h/mL. In addition, the half-life in data set [5] was 1.73 h; in data set [9] it was 4.58 h. For the same molecule, the Tmax in data set [6] came to 4.98 min. In addition, the “Ratio IC50” value with MCF7 [7] was determined as 7; with A549 [10], 11.6. Also, in data set [8], the bioavailability was found to be 81%.
Consider `Nc1ccccc1NC(=O)c1ccc(CNc2nccc(-c3cnc4ncccn34)n2)cc1`, for which the concentration for half-maximal inhibition (IC50) came to 856 nM in the data set on MCF7 [1], 183 nM with HCT-116, 427 nM in the data set on A549 [2] and 35 nM against Histone deacetylase 1.
